Data from US20020156077A1, “Non-steroidal estrogen receptor ligands” (priority 2001, published 2002).
Like-named read-outs stand apart in the source and are kept apart here.

Tests used:
[1] = target: T1, human recombinant estrogen receptor alpha (Homo sapiens, UniProt P03372); experiment: Estrogen receptor alpha binding assay, displacement of [3H] Estradiol
T1 construct: purchased PanVera Corporation
T1 sequence (P03372 1-595): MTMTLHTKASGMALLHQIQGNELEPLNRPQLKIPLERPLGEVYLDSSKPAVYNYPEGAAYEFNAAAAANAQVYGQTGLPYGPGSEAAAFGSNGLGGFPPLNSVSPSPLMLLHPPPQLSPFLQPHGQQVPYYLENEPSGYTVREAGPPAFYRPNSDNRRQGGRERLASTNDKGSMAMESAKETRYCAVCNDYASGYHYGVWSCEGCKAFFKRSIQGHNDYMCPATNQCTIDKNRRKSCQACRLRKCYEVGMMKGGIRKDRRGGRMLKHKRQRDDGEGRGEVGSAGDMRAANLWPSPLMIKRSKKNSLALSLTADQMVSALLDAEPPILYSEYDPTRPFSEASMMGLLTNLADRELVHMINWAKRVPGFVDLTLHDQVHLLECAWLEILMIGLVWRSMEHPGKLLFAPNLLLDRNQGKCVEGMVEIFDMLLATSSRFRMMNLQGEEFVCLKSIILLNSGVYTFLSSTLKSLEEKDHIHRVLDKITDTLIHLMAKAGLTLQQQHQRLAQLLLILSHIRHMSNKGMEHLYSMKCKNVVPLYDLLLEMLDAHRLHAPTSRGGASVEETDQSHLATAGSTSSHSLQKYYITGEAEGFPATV
Method: (§1) The human estrogen receptor occurs in two subtypes, alpha and beta. The stable expression of these individual receptor subtypes in cells provides a rapid and accurate means of quantifying the direct interaction of a test article with the estrogen binding sites. Briefly, this assay is conducted in 96 well plates where a series of concentrations of test article are used to displace tritiated estradiol from either estrogen receptor alpha or estrogen receptor beta bearing cell membranes, under equilibrium conditions. […] This measurement is the primary test for mediation of the estrogen receptor and can also be used to measure the relative selectivity of the test article for either the alpha or beta subtype.
The alpha subtype assay measures the binding of [^3H] Estradiol to the human recombinant estrogen receptor. […] Briefly, after proper dilution, a 4.5 ng aliquot of receptor protein in modified Tris-HCL pH 7.5 buffer is incubated with 0.5 nM [^3H] Estradiol for 2 hours at 25° C. Non-specific binding is estimated in the presence of 1.0 μM diethylstilbestrol. Membranes are filtered and washed 3 times, and the filters are counted to determine [^3H] Estradiol specifically bound. Under the same conditions the receptor protein is incubated with varied concentrations of test article ranging from 1 nM to 1 μM and the displacement of [^3H] Estradiol is measured in duplicate. The measurement of the displaced tritiated estradiol allows the determination of an IC50 value, a direct measure of the test articles interaction with the estrogen receptor alpha.

[2] = target: human recombinant estrogen receptor beta (Homo sapiens, UniProt Q92731); experiment: Estrogen receptor beta binding assay, displacement of [3H] Estradiol
Method: as §1
The beta subtype assay also allowed the determination of an IC50 value of the test article under the same conditions as for the alpha subtype assay with the exception that a 7.5 ng aliquot of receptor protein preparation was used.

[3] = test system: tamoxifen-resistant breast cancers; conditions: tamoxifen-resistant breast cancer patients; cited from earlier work
MCF-7 cells = experiment: MCF-7 cell proliferation assay (MTT), estradiol stimulated versus unstimulated; assay type: cell-based, human; conditions: FIGS. 1 and 2
Excerpt: Those skilled in the art will appreciate that several acceptable estrogen receptor-binding assays are known and available for initial screening of the compounds of the present invention. The initial screen chosen was a human cell line assay, namely the MCF-7 cell proliferation assay for detecting anti-estrogenic/estrogenic activity. The MCF-7 human breast cancer cell line has been used as an industry standard for the evaluation of estrogen receptor antagonists. MCF-7 cells are estrogen-receptor positive (ER+) cancer cells that respond to estradiol stimulation. Antiestrogenic activity is measured in terms of a test article's ability to inhibit estradiol stimulated proliferation, implying an antagonistic action on the estrogen receptor and estogenic activity can be inferred from increased proliferation. The following testing procedure was used.
MCF-7 cells were maintained in RPMI medium free of phenol red and supplemented with 5% charcoal-stripped foetal calf serum, hydrocortisone, bovine insulin, penicillin and streptomycin until they reached 70% confluence. […] Cell survival was evaluated after 3-6 days, by replacing the culture media with 150 μl of fresh medium containing 10 mM 4-(2-hydroxyethyl)-1-piperazineethamsulfonic acid buffer (pH 7.4) followed by addition of 50 μl of 2.5 mg/ml of 3-(4,5-dimethylthiazo-2-yl)-2,5-diphenyltetrazolium bromide (MTT). […]

[4] = 0.5 nM [3H] Estradiol, 2 hours at 25° C, 7.5 ng receptor protein, read-out: IC50 Value, ER Subtype Beta
[5] = 0.5 nM [3H] Estradiol, 2 hours at 25° C, 4.5 ng receptor protein, read-out: IC50 Value, ER Subtype Alpha

Sequence of human recombinant estrogen receptor beta (Q92731 whole entry): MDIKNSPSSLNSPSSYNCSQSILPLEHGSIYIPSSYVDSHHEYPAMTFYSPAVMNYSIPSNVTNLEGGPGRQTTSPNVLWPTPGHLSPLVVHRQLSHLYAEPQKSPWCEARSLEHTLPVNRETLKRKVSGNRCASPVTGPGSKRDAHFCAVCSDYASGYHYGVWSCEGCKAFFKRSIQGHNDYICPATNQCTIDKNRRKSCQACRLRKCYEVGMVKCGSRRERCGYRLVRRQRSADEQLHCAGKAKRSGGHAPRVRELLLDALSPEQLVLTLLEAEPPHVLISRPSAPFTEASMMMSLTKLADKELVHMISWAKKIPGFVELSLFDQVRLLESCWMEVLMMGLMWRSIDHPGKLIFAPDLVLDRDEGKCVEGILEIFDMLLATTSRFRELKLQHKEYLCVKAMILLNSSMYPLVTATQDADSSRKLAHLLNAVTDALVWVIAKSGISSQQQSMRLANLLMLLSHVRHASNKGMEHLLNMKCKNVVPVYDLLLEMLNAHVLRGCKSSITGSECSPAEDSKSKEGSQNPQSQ

Compound	IC50 [2, 4]	IC50 [1, 5]	effect on estradiol stimulated MCF-7 cell proliferation (shift of dose-response curves) (MCF-7 cells)	also measured
CC(C)=C(C)c1ccc2c(c1)c(-c1ccc(OCCN3CCCCC3)cc1)cc1cc(O)cc(C)c12 [formula 6, 7-(1,2-dimethylpropenyl)-4-methyl-9-[4-(2-piperidin-1-yl-ethoxy)-phenyl]-phenanthren-2-ol]	0.009 µM			IC50 [1]: 0.018 µM
C[C@]12CC[C@@H]3c4ccc(O)cc4C[C@@H](CCCCCCCCC[S+]([O-])CCCC(F)(F)C(F)(F)F)[C@H]3[C@@H]1CC[C@@H]2O (stereo partly drawn) [ICI 182780]				tamoxifen-resistant patients who responded [3]: approximately two-thirds
Cc1cc(O)cc2cc(-c3ccc(OCCN4CCCCC4)cc3)c3cc(C(=O)C(C)C)ccc3c12 [formula 3, 1-[7-hydroxy-5-methyl-10-[4-(2-piperidin-1-yl-ethoxy)-phenyl]-phenanthren-2-yl]-2-methyl-propan-1-one]	0.12 µM	0.039 µM	antagonizing the effect of estradiol	
C=C(C)c1ccc2c(c1)c(-c1ccc(OCCN3CCCCC3)cc1)cc1cc(O)cc(C)c12 [formula 5]		0.032 µM		IC50 [2]: 0.02 µM
CC(=O)c1ccc2c(c1)c(-c1ccc(OCCN3CCCCC3)cc1)cc1cc(O)cc(C)c12 [Formula 4, 1-[7-hydroxy-5-methyl-10-[4-(2-piperidin-1-yl-ethoxy)-phenyl]-phenanthren-2-yl]-ethanone]			antagonizing the effect of estradiol	
